Laboratory results from US20060188945A1, “Screening methods” (priority 2004, published 2006).

What was measured:
full-length human GHR = molecular target: T1, full-length human GHR (Homo sapiens, UniProt P10912); experiment: Immunofluorescence of subcellular distribution and internalization of growth hormone receptor; format: cell-based; settings: WRL-68 cells transfected with human GHR; immunofluorescence using Mab263; 10-100 nM GH or 2 μM BVT.3693
T1 construct: plasmid DNA encoding the full-length human GHR; expressed in transfected cells; host or cells: WRL-68 cells
T1 sequence (P10912 19-638): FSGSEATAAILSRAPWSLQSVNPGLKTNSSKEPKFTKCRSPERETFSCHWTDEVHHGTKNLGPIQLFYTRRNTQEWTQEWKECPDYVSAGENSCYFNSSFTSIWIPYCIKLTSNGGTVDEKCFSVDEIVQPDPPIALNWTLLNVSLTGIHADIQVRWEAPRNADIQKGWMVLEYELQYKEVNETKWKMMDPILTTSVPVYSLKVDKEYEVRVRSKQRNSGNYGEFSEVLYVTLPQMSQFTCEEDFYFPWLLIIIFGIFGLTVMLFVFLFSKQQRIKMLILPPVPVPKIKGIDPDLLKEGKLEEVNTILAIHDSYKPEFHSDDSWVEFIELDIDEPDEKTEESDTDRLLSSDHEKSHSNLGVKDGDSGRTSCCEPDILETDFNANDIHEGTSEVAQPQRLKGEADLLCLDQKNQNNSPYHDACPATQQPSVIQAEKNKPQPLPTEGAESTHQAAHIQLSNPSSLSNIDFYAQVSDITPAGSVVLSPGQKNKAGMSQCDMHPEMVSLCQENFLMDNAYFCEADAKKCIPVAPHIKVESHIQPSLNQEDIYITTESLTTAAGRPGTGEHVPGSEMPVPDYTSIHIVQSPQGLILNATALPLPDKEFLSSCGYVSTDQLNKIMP
Description: WRL-68 cells were cultured in EMEM medium with NaHCO3 (Statens Veterinärmedicinska Anstalt, Uppsala, Sweden), supplemented with 10% fetal bovine serum (FBS), 2% L-Glutamine, 1% Pyruvate, and non-essential acids (NEA), all from GIBCO, at 37° C. in 5% CO2.
Transfection: Cells were transfected with plasmid DNA encoding the full-length human GHR (pMB 1288, 2 μg/μl) using DOTAP Liposomal Transfection Reagent (Roche), according to the manufacturers instructions. WRL-68 cells in T75 flasks were transfected with 10 μg DNA for each flask. 5 μl (10 μg) DNA was diluted with 250 μl OPTIMEM1 medium (GIBCO), and mixed with 75 μl DOTAP reagent diluted in 175 μl OPTIMEM1 medium. The mixture was incubated for 10 minutes and then mixed with 10 ml OPTIMEM1 medium. Cells were washed once and then incubated for 4 hours with the DNA/DOTAP transfection mix. The transfection reagents were removed and fresh culture medium was added. Cells were re-seeded into new culture dishes the following day.
Stimulation: 3×10^4 cells were seeded on chamber slides in eight-well dishes and grown for two days. […] After treatment, the cells were rinsed twice with ice-cold PBS. Fixation was performed with 4% paraformaldehyde for 20 minutes.
Staining with rabbit antiserum: The chamber slides were washed twice by immersion of the slides in a container with 0.05% TBS-Tween. […]

[1] = molecular target: T2, membrane bound GHR on a human osteosarcoma cell line (Homo sapiens, UniProt P10912); experiment: DELFIA assay for determination of receptor on cell surface; format: cell-based; settings: stimulated for 1.5 hours with increasing concentrations, Eu-labeled anti GH-rec antibody BB117, FIG. 2
T2 construct: endogenous in cells
T2 sequence (P10912 19-638): T1 sequence (P10912 19-638)
Description: The following method was used to quantify the number of GH receptors on the cell surface after stimulation with different compounds.
On day 1, WRL-68 cells were seeded at a density of 15,000 cells per well and incubated under standard cell culture conditions.
On day 3, cells were washed with serum-free medium and incubated 1 hour prior to stimulation with a dose-response of BVT.3693. The cells were then washed with ice-cold PBS (Dulbecco PBS-A) and fixated with 4% paraformaldehyde on ice for 20 minutes. Thereafter the plates were washed with PBS and stored in a refrigerator until used. […]
On day 4, the plates were washed with PBS using a DELFIA plate washer. […] The amount of Europium fluorescence was determined by reading in a Victor analysis instrument.
To correlate the amount of Europium fluorescence measured (which fluorescence is proportional to the number of GH receptors present on the cell surface) to the number of cells attached to the bottom of the well after all the washing steps, we developed an internal standard. […] Instead, we developed a method to quantify the amount of DNA in the wells as an internal standard. […]
10,000 cells per well were seeded the day before stimulation. […] Receptor quantification was performed using an Eu-labeled anti GH-rec antibody BB117, as described above (simplified protocol).

In the case of `Cc1ccc(S(N)(=O)=O)cc1NC(=O)c1ccc(Br)o1` [BVT.3693, N-[5-(aminosulfonyl)-2-methylphenyl]-5-bromo-2-furamide], the “subcellular distribution of GHR after stimulation” value (full-length human GHR) is reported as “intracellular staining, with both a nuclear localisation and a cytoplasmic localisation of the receptor” and the “amount of GHR on the surface of the cells” value [1] is reported as “dose dependent reduction”.
